Patent US6710060B2, “4-hydroxypiperidine derivatives having antiarrhythmic activity” (Mochida Pharmaceutical Co., Ltd., priority 1999, dated 2004)
Where a name gives a salt, the structure may show the parent alone. Read-outs that look alike come from different tables or passages of the source.

Tests used:
[1] = system: Ischemia-Reperfusion Induced Arrythmia Model in Rats; experiment: Suppression effect on ischemia-reperfusion induced arrythmia in rats; type: in vivo, rat
Method: [Suppression Effect on Ischemia-Reperfusion Induced Arrythmia in Rats]
The test compounds were administered to rats starved from a day before by gavage at a dosage of 10 mL/kg under an awaken condition. The rats were anesthetized with 60 mg/kg (i.p.) of sodium pentobarbital after 35 minutes passed from the administration, and were fixed on a warmed sheet in supine position. The body temperature was kept at 37° C. during the experiment, and artificial respiration was started under a condition of 15 mL/Kg and 55 strokes/minutes. […] Then, the left chest was open, and the left major coronary artery at an atrium side was sewed using a needle with a thread in order to ligate the coronary artery. After stabilizing for about 10 minutes (after 60 minutes passed from the administration), the coronary artery was ligated for 5 minutes, and re-perfused for 10 minutes thereafter. The ligation of the coronary artery was conducted by inserting a suture through a snare made of a polyethylene tube and pulling the both ends of the suture, followed by pressing the snare onto the heart. The re-perfusion was conducted by removing the snare. The aortic blood pressure was measured with a pressure transducer. An electrocardiogram was led by a standard lead II. […] After the completion of the experiments, generation of ventricular fibrillation was confirmed for each individual using an analysis software running on the personal computer, and incidence (%) of the ventricular fibrillation was determined for each administration group.

[2] = system: Electrocardiogram in Rats; experiment: Effect on electrocardiogram in rats; type: in vivo; conditions: 5 mg/kg intravenous, anesthetized rat, two minutes after administration
Method: [Effect on Electrocardiogram in Rats]
After anesthetizing with 1.5 g/kg (s.c.) of urethane, a rat was fixed on a warm plate at its supination. Polyethylene tubes for administering a test compound and for measuring the blood pressure were inserted into and fixed to the jugular vein and femoral artery, respectively. The blood pressure of the artery was measured using a pressure transducer. An electrode was attached to the animal, electrocardiograms were led by the standard lead II. The heart rate was measured by using a heart rate counter. The test compound was given by intravenous injection when the blood pressure and heat rate had been stabilized after the operation. […] Each parameter on the electrocardiogram was processed using an analysis software running on the personal computer to calculate the rate of change as compared with that before administration.

[3] = system: isolated cardiac muscle cells; experiment: Suppression activity of veratrine-induced contracture of isolated cardiac muscle; type: cell-based; conditions: Cardiac muscle cell, 5 min; rat isolated cardiac muscle cells, veratrine 100 gg/mL, 5 minutes after addition, probit analysis; read-out: IC50 (concentration of the test compound when half of the cells were contracted)
Method: [Suppression Activity of Veratrine-Induced Contracture of Isolated Cardiac Muscle]
Rats were anesthetized with 40 mg/kg (i.p.) of pentobarbital sodium and held in supine postion, and heparin was injected through the jugular vein. […] A polyethylene tube filled with Krebs-Ringer-HEPES (KRH) solution (pH 7.4) containing 1 mM CaCl2 was inserted through the aorta in retrograde manner, and the tube was fixed. The heart was extracted simultaneously with perfusion of the KRH solution at a hydraulic pressure of 70 cm water column. After thoroughly flushing the remaining blood by spontaneous contraction of the heart, stroke of the heart was halted by perfusion of the Ca^2+ free KRH solution for 10 minutes. The perfusion solutions described above were used after oxygenation with a mixed gas containing 95% O2 and 5% CO2 and keeping at a temperature of 37° C. Then, a KRH solution containing 25 μM CaCl2, 0.06% collagenase and 0.1% albumin was perfused for 20 minutes at 37° C. until the heart was soften. The ventricles were cut into pieces in the collagenase solution at 37° C., followed by an enzyme treatment for 10 minutes while aerating the solution with the mixed gas of 95% O2/5% CO2. The cells were dispersed by pipetting, and connective tissues were removed from the dispersed cells by filtering with a stainless steel mesh. After halting the enzyme reaction by adding albumin in the filtrate, the supernatant was discarded by centrifugation. The cells were suspended in the KRH solution containing 25 μM CaCl2 and 1% albumin, and the Ca^2+ concentration was increased stepwise by sequentially adding the CaCl2 solution in the suspension to a final concentration of 0.5 mM. A pellet of the cells was obtained by centrifugation after allowing the suspension to stand for 10 minutes. The pellet of the cells was laid on a column (10 cm in height and 15 mm in diameter) filled with the KRH solution containing 1 mM CaCl2 and 2% albumin, and the column was allowed to stand for 5 to 10 minutes. The supernatant was gently removed, and the number of rod-shaped cells in the precipitated cells was counted. The cells were re-suspended in the KRH solution containing 1 mM CaCl2 and 0.1% albumin, and pipetted into each well of a 48 well multi-plate (3548, COSTER) coated with poly-L-lysine so that each well contains 0.5 mL of the cell suspension with 1×10^4 cells/well. The suspension in each well was aerated with a mixed gas of 95% O2/5% CO2 at 37° C. for 1 hour to allow the cells to adhere on the bottom of the well. […] Then, the medium was replaced with a KRH solution containing a test compound, 0.025% lactic acid and 1 mM CaCl2, followed by aerating with a mixed gas containing 95% O2/5% CO2 at 37° C. for 30 minutes. After taking a photograph under a microscope, a KRH solution containing veratrine, 0.025% lactic acid and 1 mM CaCl2 was added to each well so that the final concentration of veratrin becomes 100 gg/mL, followed by taking a photograph of morphological changes of the cells after 5 minutes passed from the addition. A change from the rod-shape cell to a spherical cell was defined as contraction by veratrine. Veratrine in this concentration can contract all the cells. The concentration of the test compound when half of the cells were contracted was defined as IC50 (μmol/L) that can be calculated by a probit analysis.

[4] = oral gavage once a day for 14 days, 6-week aged female rats
[5] = Table 2-2, 5 mg/kg by gavage, solvent group 57.1

SMILES | Incidence (%) of the ventricular fibrillation ([1]; Table 2-1, 5 mg/kg by gavage, ligation 60 min after administration, solvent group 63.6) | Incidence (%) of the ventricular fibrillation ([1]; Table 2-1, 10 mg/kg by gavage, solvent group 63.6) | Incidence (%) of the ventricular fibrillation ([1]; Table 2-1, 20 mg/kg by gavage, solvent group 63.6) | daily dosage at which no fatal cases were observed (female Crj(SD)IGS rats; [4]) | PQ Distance (rate of change) [2] | QRS Width (rate of change) [2] | IC50 [3] | Incidence (%) of the ventricular fibrillation [1, 5] | daily dosage at which no fatal cases were observed (female Crj(SD)IGS rats; female, Crj(SD)IGS, rat, in vivo, po, 14 days)
CCCCOc1ccc(N(C)CCC2(O)CCN(Cc3ccccc3)CC2)cc1 [Example 146, 1-benzyl-4-[2-[N-(4-n-butoxyphenyl)-N-methylamino]ethyl]piperidin-4-ol dihydrochloride] | 30.0% | 11.1% | 0.0% | ≤ 100 mg/kg | — (The rate of change at two minutes after administration is 15% or less as compared with that before administration.) | — (The rate of change at two minutes after administration is 15% or less as compared with that before administration.) | 1200 nM | – | –
COC(=O)c1ccc(CN2CCC(O)(CCN(C)c3ccc(OC(C)C)cc3)CC2)cc1 [Example 233, 1-[4-(methoxycarbonyl)phenylmethyl]-4-[2-[N-methyl-N-(4-isopropoxyphenyl)amino]ethylipiperidin-4-oldihydrochloride] | – | – | – | – | — (The rate of change at two minutes after administration is 15% or less as compared with that before administration.) | — (The rate of change at two minutes after administration is 15% or less as compared with that before administration.) | – | 28.6% | ≤ 50 mg/kg
CC(C)Oc1ccc(N(C)CCC2(O)CCN(C(c3ccccc3)c3ccccc3)CC2)cc1 [Example 278, 1-diphenylmethyl-4-[2-[N-methyl-N-(4-isopropoxyphenyl)-amino]ethyl]piperidin-4-ol dihydrochloride] | – | – | – | ≤ 20 mg/kg | — (The rate of change at two minutes after administration is 15% or less as compared with that before administration.) | — (The rate of change at two minutes after administration is 15% or less as compared with that before administration.) | 300 nM | 0.0% | –
